Experimental data from ChEMBL document CHEMBL5726588, “Chemically modified quinoline and quinolone derivatives useful as CB-1 inverse agonists” (2017).

Columns and labels:
[1] = target: Cannabinoid receptor 2 (Homo sapiens, UniProt P34972); assay: (§1) cAMP Assay : Cells plated the day prior to the assay in clear bottom plates were viewed on an inverse microscope to ensure confluency in the range of 60-75%. The following mixtures and buffer solutions were prepared: (a) Buffer 1: HBSS (Mediatech Cat#21-023-CV) with 5 mM HEPES ([…], Gibco BRL Cat#15630-056) and 0.1% BSA (7.5% stock, Invitrogen Cat#15260-037); (b) Buffer 2: 0.5 mM IBMX (200 mM stock in DMSO, Sigma 15879) in Buffer 1; (c) 1 μM cAMP Standard (50 μM stock, Perkin Elmer Cat# AD0262) diluted in Buffer 2 and serially diluted in Buffer 2, 12 doses @ ½ dilutions resulting in a dose range of 1 μM to 0.5 nM; (d) d2 labelled cAMP (CisBio HTRF Detection Kit Cat #62AM4PEB reconstituted with 6 mL d-H2O) diluted 1/20 with lysis buffer (CisBio HTRF Detection Kit Cat #62AM4PEB); (e) anti-cAMP (CisBio HTRF Detection Kit Cat # 62AM4PEB reconstituted with 5 mL d-H2O) diluted 1/20 with lysis buffer (CisBio HTRF Detection Kit Cat #62AM4PEB); and (f) Forskolin (Sigma Cat# F6886, 10 mM in DMSO) diluted first in DMSO to 1 mM and then to 1.5 μM in Buffer 2.
[2] = target: Cannabinoid receptor 1 (Homo sapiens, UniProt P21554); assay: as §1
Chain of Cannabinoid receptor 1 (P21554 whole entry): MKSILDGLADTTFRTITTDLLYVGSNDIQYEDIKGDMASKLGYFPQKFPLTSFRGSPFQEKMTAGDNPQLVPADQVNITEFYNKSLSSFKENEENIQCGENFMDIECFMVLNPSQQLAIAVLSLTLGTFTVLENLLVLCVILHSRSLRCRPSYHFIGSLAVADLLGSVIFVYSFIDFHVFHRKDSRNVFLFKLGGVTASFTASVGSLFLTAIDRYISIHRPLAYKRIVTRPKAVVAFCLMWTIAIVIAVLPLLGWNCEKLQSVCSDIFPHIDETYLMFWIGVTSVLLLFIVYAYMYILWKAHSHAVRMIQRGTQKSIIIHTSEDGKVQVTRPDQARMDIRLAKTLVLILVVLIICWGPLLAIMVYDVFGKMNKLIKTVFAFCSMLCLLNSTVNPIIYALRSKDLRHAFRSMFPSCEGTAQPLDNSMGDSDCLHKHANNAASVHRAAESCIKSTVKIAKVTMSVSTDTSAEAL

Chain of Cannabinoid receptor 2 (P34972 whole entry): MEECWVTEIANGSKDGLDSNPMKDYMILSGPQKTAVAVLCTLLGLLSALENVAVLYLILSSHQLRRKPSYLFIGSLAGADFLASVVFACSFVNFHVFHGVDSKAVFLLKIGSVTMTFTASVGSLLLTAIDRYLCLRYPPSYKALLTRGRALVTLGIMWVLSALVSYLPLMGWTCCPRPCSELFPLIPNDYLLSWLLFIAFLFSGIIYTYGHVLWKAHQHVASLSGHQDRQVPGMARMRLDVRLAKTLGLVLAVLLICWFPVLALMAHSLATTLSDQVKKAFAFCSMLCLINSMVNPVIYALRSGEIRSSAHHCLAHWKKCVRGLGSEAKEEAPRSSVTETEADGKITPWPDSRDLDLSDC

NCCOCCOCCOCCOCCOCCOCCOCCOCCOCCOCCOCCOc1cc(NC2CCN(S(=O)(=O)C(F)(F)F)CC2)c2cc(C(c3ccc(Cl)cc3)c3ccc(Cl)cc3)ccc2n1
EC50 [1]: 4300 nM | EC50 [2]: 36 nM

COCCOCCOCCOCCn1c(=O)c(N2CCN(c3ccccc3)CC2)cc2cc(C(c3ccc(Cl)cc3)c3ccc(Cl)cc3)ccc21
EC50 [1]: 5510 nM | EC50 [2]: 350 nM

COCCOCCOCCOCCOCCOCCOCCn1c(=O)cc(NC2CCN(S(=O)(=O)C(F)(F)F)CC2)c2cc(C(c3ccc(Cl)cc3)c3ccc(Cl)cc3)ccc21
EC50 [1]: > 10000 nM | EC50 [2]: 4910 nM

O=S(=O)(N1CCC(Nc2ccnc3c(OCCOCCOCCOCCOCCOCCOCCOCCOCCOCCO)cc(C(c4ccc(Cl)cc4)c4ccc(Cl)cc4)cc23)CC1)C(F)(F)F
EC50 [1]: 1900 nM | EC50 [2]: 68 nM

COCCOCCOCCOCCOc1cc(NC2CCN(S(=O)(=O)C(F)(F)F)CC2)c2cc(C(c3ccc(Cl)cc3)c3ccc(Cl)cc3)ccc2n1
EC50 [1]: 7400 nM | EC50 [2]: 56 nM

CC(C)(C)OC(=O)CCOCCOCCOCCOCCOCCOCCOCCOCCOCCOCCOCCOCCOc1cc(C(c2ccc(Cl)cc2)c2ccc(Cl)cc2)cc2c(NC3CCN(S(=O)(=O)C(F)(F)F)CC3)ccnc12
EC50 [1]: 2250 nM | EC50 [2]: 460 nM

CC(C)(C)OC(=O)NCCOCCOCCOCCOCCOCCOCCOCCOCCOCCOCCOCCOc1cc(NC2CCN(S(=O)(=O)C(F)(F)F)CC2)c2cc(C(c3ccc(Cl)cc3)c3ccc(Cl)cc3)ccc2n1
EC50 [1]: > 10000 nM | EC50 [2]: 1800 nM

COCCOCCOCCOCCOCCOCCOCCOc1cc(NC2CCN(S(=O)(=O)C(F)(F)F)CC2)c2cc(C(c3ccc(Cl)cc3)c3ccc(Cl)cc3)ccc2n1
EC50 [1]: 5570 nM | EC50 [2]: 480 nM

NNC(=O)CCOCCOCCOCCOCCOCCOCCOCCOCCOCCNC(=O)CCCCCOc1cc(NC2CCN(S(=O)(=O)C(F)(F)F)CC2)c2cc(C(c3ccc(Cl)cc3)c3ccc(Cl)cc3)ccc2n1
EC50 [1]: 1260 nM | EC50 [2]: 33 nM
